Tested on: Endogenous Huntingtin Protein
Assay: Endogenous Huntingtin Protein Assay (Meso Scale Discovery ELISA-based electrochemiluminescence)
Assay type: cell-based
Conditions: MSD plates coated with MW1 (expanded polyglutamine) or MAB2166 capture antibody; lysates
Procedure: Compounds of Formula (I) were tested using the Meso Scale Discovery (MSD) Assay provided in International Application No. PCT/US2016/066042, filed on Dec. 11, 2016 and claiming priority to United States Provisional Application U.S. 62/265,652 filed on Dec. 10, 2015, the entire contents of which are incorporated herein by reference.
The Endogenous Huntingtin Protein assay used in Example 1 was developed using the ELISA-based MSD electrochemiluminescence assay platform.
Endogenous Huntingtin Protein Assay
Meso Scale Discovery (MSD) 96-well or 384-well plates were coated overnight at 4° C. with MW1 (expanded polyglutamine) or MAB2166 monoclonal antibody (for capture) at a concentration of 1 μg/mL in PBS (30 μL per well). Plates were then washed three times with 300 μL wash buffer (0.05% Tween-20 in PBS) and blocked (100 μL blocking buffer; 5% BSA in PBS) for 4-5 hours at room temperature with rotational shaking and then washed three times with wash buffer.
Samples (25 μL) were transferred to the antibody-coated MSD plate and incubated overnight at 4° C. After removal of the lysates, the plate was washed three times with wash buffer, and 25 μL of #5656S (Cell signaling; rabbit monoclonal) secondary antibody (diluted to 0.25 μg/mL in 0.05% Tween-20 in blocking buffer) was added to each well and incubated with shaking for 1 Hour at room temperature. Following incubation with the secondary antibody, the wells were rinsed with wash buffer after which 25 μL of goat anti-rabbit SULFO TAG secondary detection antibody (required aspect of the MSD system) (diluted to 0.25 μg/mL in 0.05% Tween-20 in blocking buffer) was added to each well and incubated with shaking for 1 hour at room temperature. After rinsing three times with wash buffer, 150 μL of read buffer T with surfactant (MSD) were added to each empty well, and the plate was imaged on a SI 6000 imager (MSD) according to manufacturers' instructions provided for 96- or 384-well plates.

Molecule `Cn1cc(-c2cc(O)c(-c3cc4nnn(C5CC(C)(C)NC(C)(C)C5)c4nn3)cc2F)cn1` [Cpd 62, 4-fluoro-5-(1-methyl-1H-pyrazol-4-yl)-2-[3-(2,2,6,6-tetramethylpiperidin-4-yl)-3H-[1,2,3]triazolo[4,5-c]pyridazin-6-yl]phenol] has an IC50 of at most 100 nM.
`CC1(C)CC(n2nnc3cc(-c4cc(O)c(-c5cn[nH]c5)cc4O)nnc32)CC(C)(C)N1` [Cpd 58, 2-(1H-pyrazol-4-yl)-5-[3-(2,2,6,6-tetramethylpiperidin-4-yl)-3H-[1,2,3]triazolo[4,5-c]pyridazin-6-yl]benzene-1,4-diol] was tested, and the IC50 was 100 to 500 nM.
For `CC1(C)CC(c2c[nH]c3cc(-c4ccc(-c5cn[nH]c5)cc4O)nnc23)CC(C)(C)N1` [Cpd 31, 5-(1H-pyrazol-4-yl)-2-[7-(2,2,6,6-tetramethylpiperidin-4-yl)-5H-pyrrolo[3,2-c]pyridazin-3-yl]phenol], the IC50 was at most 100 nM.
With `Cc1nsc(-c2ccc(-c3cc4nnn(C5CC(C)(C)NC(C)(C)C5)c4nn3)c(O)c2)n1` [Cpd 153, 5-(3-methyl-1,2,4-thiadiazol-5-yl)-2-[3-(2,2,6,6-tetramethylpiperidin-4-yl)-3H-[1,2,3]triazolo[4,5-c]pyridazin-6-yl]phenol] the IC50 was at most 100 nM.
`CC1(C)CC(n2nnc3cc(-c4cc(F)c(-c5cn[nH]c5)cc4F)nnc32)CC(C)(C)N1` [Cpd 14, 6-[2,5-difluoro-4-(1H-pyrazol-4-yl)phenyl]-3-(2,2,6,6-tetramethylpiperidin-4-yl)-3H-[1,2,3]triazolo[4,5-c]pyridazine] showed an IC50 of 100 to 500 nM.
`CC(C)(C)NC1CCC(n2nnc3cc(-c4ccc(-c5cn[nH]c5)cc4O)nnc32)C1` (centres unmarked) [Cpd 175, 2-{3-[3-(tert-butylamino)cyclopentyl]-3H-[1,2,3]triazolo[4,5-c]pyridazin-6-yl}-5-(1H-pyrazol-4-yl)phenol] showed an IC50 of 500 to 1000 nM.
`Cc1cnc(-c2ccc(-c3cc4nnn(C5CC(C)(C)NC(C)(C)C5)c4nn3)c(O)c2)s1` [Cpd 133, 5-(5-methyl-1,3-thiazol-2-yl)-2-[3-(2,2,6,6-tetramethylpiperidin-4-yl)-3H-[1,2,3]triazolo[4,5-c]pyridazin-6-yl]phenol] showed an IC50 of 100 to 500 nM.
`CC1(C)CC(n2nnc3cc(-c4ccc(-c5cc[nH]c(=O)c5)cc4O)nnc32)CC(C)(C)N1` [Cpd 93, 4-{3-hydroxy-4-[3-(2,2,6,6-tetramethylpiperidin-4-yl)-3H-[1,2,3]triazolo[4,5-c]pyridazin-6-yl]phenyl}pyridin-2(1H)-one] gave an IC50 of at most 100 nM.
`CN1C(C)(C)CC(n2nnc3cc(-c4ccc(-c5cn[nH]c5)cc4O)nnc32)CC1(C)C` [Cpd 52, 2-[3-(1,2,2,6,6-pentamethylpiperidin-4-yl)-3H-[1,2,3]triazolo[4,5-c]pyridazin-6-yl]-5-(1H-pyrazol-4-yl)phenol] was tested, and the IC50 was 500 to 1000 nM.
`CC1(C)C=C(c2c[nH]c3cc(-c4ccc(-c5cn[nH]c5)cc4O)nnc23)CC(C)(C)N1` [Cpd 20, 5-(1H-pyrazol-4-yl)-2-[7-(2,2,6,6-tetramethyl-1,2,3,6-tetrahydropyridin-4-yl)-5H-pyrrolo[3,2-c]pyridazin-3-yl]phenol] showed an IC50 of at most 100 nM.
`CC1(C)CC(n2ncc3cc(-c4ccc(-c5cccnc5)cc4O)nnc32)CC(C)(C)N1` [Cpd 166, 5-(pyridin-3-yl)-2-[1-(2,2,6,6-tetramethylpiperidin-4-yl)-1H-pyrazolo[3,4-c]pyridazin-5-yl]phenol] was tested, and the IC50 was 100 to 500 nM.
`CC1(C)CC(n2nnc3cc(-c4ccc(-c5cnn(C(F)F)c5)cc4O)nnc32)CC(C)(C)N1` [Cpd 71, 5-[1-(difluoromethyl)-1H-pyrazol-4-yl]-2-[3-(2,2,6,6-tetramethylpiperidin-4-yl)-3H-[1,2,3]triazolo[4,5-c]pyridazin-6-yl]phenol] showed an IC50 of 100 to 500 nM.
Molecule `Cn1ccc(-c2cc(O)c(-c3cc4nnn(C5CC(C)(C)NC(C)(C)C5)c4nn3)cc2F)cc1=O` [Cpd 55, 4-{2-fluoro-5-hydroxy-4-[3-(2,2,6,6-tetramethylpiperidin-4-yl)-3H-[1,2,3]triazolo[4,5-c]pyridazin-6-yl]phenyl}-1-methylpyridin-2(1H)-one] has an IC50 of 100 to 500 nM.
`CC1(C)CC(n2nnc3cc(-c4ccc(-c5ccnc(OC(F)F)c5)cc4O)nnc32)CC(C)(C)N1` [Cpd 114, 5-[2-(difluoromethoxy)pyridin-4-yl]-2-[3-(2,2,6,6-tetramethylpiperidin-4-yl)-3H-[1,2,3]triazolo[4,5-c]pyridazin-6-yl]phenol] gave an IC50 of 1000 to 3000 nM.
For `[2H]C([2H])([2H])n1cc(-c2ccc(-c3cc4cnn(C5CC(C)(C)NC(C)(C)C5)c4nn3)c(O)c2)cn1` [Cpd 102, 5-[1-(^2H3)methyl-1H-pyrazol-4-yl]-2-[1-(2,2,6,6-tetramethylpiperidin-4-yl)-1H-pyrazolo[3,4-c]pyridazin-5-yl]phenol], the IC50 was at most 100 nM.
`CC1(C)CC(n2nnc3cc(-c4ccc(-n5cnc(F)c5)cc4O)nnc32)CC(C)(C)N1` [Cpd 143, 5-(4-fluoro-1H-imidazol-1-yl)-2-[3-(2,2,6,6-tetramethylpiperidin-4-yl)-3H-[1,2,3]triazolo[4,5-c]pyridazin-6-yl]phenol] was tested, and the IC50 was at most 100 nM.
Work on `Cc1ccnn1-c1ccc(-c2cc3nnn(C4CC(C)(C)NC(C)(C)C4)c3nn2)c(O)c1` [Cpd 155, 5-(5-methyl-1H-pyrazol-1-yl)-2-[3-(2,2,6,6-tetramethylpiperidin-4-yl)-3H-[1,2,3]triazolo[4,5-c]pyridazin-6-yl]phenol] yielded an IC50 of 3000 to 9000 nM.
Molecule `CC1(C)CC(n2nnc3cc(-c4ccc(-c5nncs5)cc4O)nnc32)CC(C)(C)N1` [Cpd 116, 2-[3-(2,2,6,6-tetramethylpiperidin-4-yl)-3H-[1,2,3]triazolo[4,5-c]pyridazin-6-yl]-5-(1,3,4-thiadiazol-2-yl)phenol] has an IC50 of at most 100 nM.
`CC1(C)CC(n2nnc3cc(-c4ccc(-c5ccnc(C(F)(F)F)c5)cc4O)nnc32)CC(C)(C)N1` [Cpd 74, 2-[3-(2,2,6,6,-tetramethylpiperidin-4-yl)-3H-[1,2,3]triazolo[4,5-c]pyridazin-6-yl]-5-[2-(trifluoromethyl)pyridin-4-yl]phenol] showed an IC50 of 100 to 500 nM.
For `CC1(C)CC(n2nnc3cc(-c4ccc(-c5cn[nH]c5)c(F)c4F)nnc32)CC(C)(C)N1` [Cpd 13, 6-[2,3-difluoro-4-(1H-pyrazol-4-yl)phenyl]-3-(2,2,6,6-tetramethylpiperidin-4-yl)-3H-[1,2,3]triazolo[4,5-c]pyridazine], the IC50 was 100 to 500 nM.
`CC1(C)CC(n2nnc3cc(-c4ccc(-n5ccnn5)cc4O)nnc32)CC(C)(C)N1` [Cpd 72, 2-[3-(2,2,6,6-tetramethylpiperidin-4-yl)-3H-[1,2,3]triazolo[4,5-c]pyridazin-6-yl]-5-(1H-1,2,3-triazol-1-yl)phenol] was tested, and the IC50 was 100 to 500 nM.
`CC1(C)CC(n2nnc3cc(-c4ccc(-n5ccnc5)cc4O)nnc32)CC(C)(C)N1` [Cpd 70, 5-(1H-imidazol-1-yl)-2-[3-(2,2,6,6-tetramethylpiperidin-4-yl)-3H-[1,2,3]triazolo[4,5-c]pyridazin-6-yl]phenol] showed an IC50 of at most 100 nM.
`CN(C)c1cc(-c2ccc(-c3cc4nnn(C5CC(C)(C)NC(C)(C)C5)c4nn3)c(O)c2)ccn1` [Cpd 100, 5-[2-(dimethylamino)pyridin-4-yl]-2-[3-(2,2,6,6-tetramethylpiperidin-4-yl)-3H-[1,2,3]triazolo[4,5-c]pyridazin-6-yl]phenol] was tested, and the IC50 was 1000 to 3000 nM.
Work on `CC1(C)CC(n2cnc3nc(-c4ccc(-c5cn[nH]c5)cc4O)cnc32)CC(C)(C)N1` [Cpd 1, 5-(1H-pyrazol-4-yl)-2-[1-(2,2,6,6-tetramethylpiperidin-4-yl)-1H-imidazo[4,5-b]pyrazin-5-yl]phenol] yielded an IC50 of 100 to 500 nM.
`Oc1cc(-c2cn[nH]c2)ccc1-c1cc2scc(C3=CC4COCC(C3)N4)c2nn1` (centres unmarked) [Cpd 25, 2-[7-(3-oxa-9-azabicyclo[3.3.1]non-6-en-7-yl)thieno[3,2-c]pyridazin-3-yl]-5-(1H-pyrazol-4-yl)phenol] gave an IC50 of at most 100 nM.
For `CC1(C)CC(n2nnc3cc(-c4ccc(-c5cn6ccnc6cn5)cc4O)nnc32)CC(C)(C)N1` [Cpd 142, 5-(imidazo[1,2-a]pyrazin-6-yl)-2-[3-(2,2,6,6-tetramethylpiperidin-4-yl)-3H-[1,2,3]triazolo[4,5-c]pyridazin-6-yl]phenol], the IC50 was at most 100 nM.
Molecule `Cn1cc(-c2ccc(-c3cc4nnn(C5CC(C)(C)NC(C)(C)C5)c4nn3)c(O)c2)cn1` [Cpd 39, 5-(1-methyl-1H-pyrazol-4-yl)-2-[3-(2,2,6,6-tetramethylpiperidin-4-yl)-3H-[1,2,3]triazolo[4,5-c]pyridazin-6-yl]phenol] has an IC50 of at most 100 nM.
`CC1(C)CC(n2nnc3cc(-c4cc(F)c(-c5cn[nH]c5)cc4O)nnc32)CC(C)(C)N1` [Cpd 35, 4-fluoro-5-(1H-pyrazol-4-yl)-2-[3-(2,2,6,6-tetramethylpiperidin-4-yl)-3H-[1,2,3]triazolo[4,5-c]pyridazin-6-yl]phenol] was tested, and the IC50 was at most 100 nM.
`CCn1cc(-c2ccc(-c3cc4nnn(C5CC(C)(C)NC(C)(C)C5)c4nn3)c(O)c2)cn1` [Cpd 46, 5-(1-ethyl-1H-pyrazol-4-yl)-2-[3-(2,2,6,6-tetramethylpiperidin-4-yl)-3H-[1,2,3]triazolo[4,5-c]pyridazin-6-yl]phenol] was tested, and the IC50 was 500 to 1000 nM.

Source: patent US11858941B2, “Heterocyclic and heteroaryl compounds for treating Huntington's disease” (PTC THERAPEUTICS, INC., priority 2018, dated 2024)
